For this assay, the system named is F98 glioma. Description: Surviving assay in Fischer rats implanted with F98 glioma, intra carotid drug delivery with or without Gamma Knife irradiation. As to conditions: F98 glioma-bearing Fischer rats, 1 ml/rat intra-carotid 10 days after implantation; LipoGold with 15 Gy Gamma Knife 8 h later; FIG. 6. It counts as in vivo.

On to `N.N.[Cl][Pt][Cl]` [cisplatin, cis-diammineplatinum(II) dichloride], for which the “life span / surviving time” value was “died before sham animals”.
For `O=C1[O][Pt]2([NH][C@@H]3CCCC[C@H]3[NH]2)[O]C1=O` [oxaliplatin] the value was “short life span, similar to sham animals”.
